Measurements: article PMC3914206

Assays:
Type in all cases: binding
panel of 442 kinases [1] = target: T1, panel of 442 kinases (Homo sapiens, UniProt P43403); settings: kinase ZAP70; compound concentration 10 µM
T1 construct: purchased KINOMEscan
T1 sequence (P43403 1-619): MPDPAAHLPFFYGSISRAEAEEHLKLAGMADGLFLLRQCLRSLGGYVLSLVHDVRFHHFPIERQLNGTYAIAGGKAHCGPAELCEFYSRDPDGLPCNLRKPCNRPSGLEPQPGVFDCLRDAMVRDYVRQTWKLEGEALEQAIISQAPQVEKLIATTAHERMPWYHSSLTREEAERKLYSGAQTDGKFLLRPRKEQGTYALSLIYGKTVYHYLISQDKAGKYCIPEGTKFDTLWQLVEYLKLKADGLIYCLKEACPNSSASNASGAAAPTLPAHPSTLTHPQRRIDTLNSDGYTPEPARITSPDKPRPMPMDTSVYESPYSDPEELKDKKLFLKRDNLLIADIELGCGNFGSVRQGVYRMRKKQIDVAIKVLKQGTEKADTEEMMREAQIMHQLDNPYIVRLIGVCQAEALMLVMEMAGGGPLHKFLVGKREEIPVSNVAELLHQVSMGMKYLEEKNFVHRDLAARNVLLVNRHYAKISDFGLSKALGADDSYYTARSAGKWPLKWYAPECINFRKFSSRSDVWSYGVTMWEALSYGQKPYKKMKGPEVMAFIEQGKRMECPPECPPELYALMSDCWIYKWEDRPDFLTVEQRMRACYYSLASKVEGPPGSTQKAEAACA
Text: (§1) We assessed the selectivity of members of this scaffold using the KINOMEscan methodology across a near comprehensive panel of 442 kinases [[18,27]].

panel of 442 kinases [2] = target: T2, panel of 442 kinases (Homo sapiens, UniProt P15056); settings: Compound Concentration 10 µM
T2 construct: purchased KINOMEscan
T2 sequence (P15056 whole entry): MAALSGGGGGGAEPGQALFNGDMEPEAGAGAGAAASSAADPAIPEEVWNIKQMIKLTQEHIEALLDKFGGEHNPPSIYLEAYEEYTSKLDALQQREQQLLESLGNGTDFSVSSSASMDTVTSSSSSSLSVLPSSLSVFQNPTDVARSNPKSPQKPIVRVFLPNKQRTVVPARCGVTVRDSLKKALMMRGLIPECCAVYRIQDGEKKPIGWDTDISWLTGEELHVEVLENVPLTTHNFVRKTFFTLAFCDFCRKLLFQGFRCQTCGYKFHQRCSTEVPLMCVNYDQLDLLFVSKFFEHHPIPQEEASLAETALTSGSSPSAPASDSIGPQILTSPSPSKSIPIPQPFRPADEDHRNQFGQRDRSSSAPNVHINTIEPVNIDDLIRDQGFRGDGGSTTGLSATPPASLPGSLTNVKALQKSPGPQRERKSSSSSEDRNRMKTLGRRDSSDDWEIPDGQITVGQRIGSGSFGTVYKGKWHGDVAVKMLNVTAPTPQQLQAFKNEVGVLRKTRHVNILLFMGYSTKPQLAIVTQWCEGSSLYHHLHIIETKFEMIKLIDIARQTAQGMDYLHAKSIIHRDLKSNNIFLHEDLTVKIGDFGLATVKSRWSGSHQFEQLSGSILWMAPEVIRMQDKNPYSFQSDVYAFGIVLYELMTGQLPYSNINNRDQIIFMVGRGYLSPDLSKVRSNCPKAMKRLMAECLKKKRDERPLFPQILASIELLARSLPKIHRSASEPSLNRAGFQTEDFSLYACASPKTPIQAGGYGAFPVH
Text: as §1

panel of 442 kinases [3] = target: T3, panel of 442 kinases (Homo sapiens, UniProt P07332); settings: Compound Concentration 10 µM
T3 construct: purchased KINOMEscan
T3 sequence (P07332 whole entry): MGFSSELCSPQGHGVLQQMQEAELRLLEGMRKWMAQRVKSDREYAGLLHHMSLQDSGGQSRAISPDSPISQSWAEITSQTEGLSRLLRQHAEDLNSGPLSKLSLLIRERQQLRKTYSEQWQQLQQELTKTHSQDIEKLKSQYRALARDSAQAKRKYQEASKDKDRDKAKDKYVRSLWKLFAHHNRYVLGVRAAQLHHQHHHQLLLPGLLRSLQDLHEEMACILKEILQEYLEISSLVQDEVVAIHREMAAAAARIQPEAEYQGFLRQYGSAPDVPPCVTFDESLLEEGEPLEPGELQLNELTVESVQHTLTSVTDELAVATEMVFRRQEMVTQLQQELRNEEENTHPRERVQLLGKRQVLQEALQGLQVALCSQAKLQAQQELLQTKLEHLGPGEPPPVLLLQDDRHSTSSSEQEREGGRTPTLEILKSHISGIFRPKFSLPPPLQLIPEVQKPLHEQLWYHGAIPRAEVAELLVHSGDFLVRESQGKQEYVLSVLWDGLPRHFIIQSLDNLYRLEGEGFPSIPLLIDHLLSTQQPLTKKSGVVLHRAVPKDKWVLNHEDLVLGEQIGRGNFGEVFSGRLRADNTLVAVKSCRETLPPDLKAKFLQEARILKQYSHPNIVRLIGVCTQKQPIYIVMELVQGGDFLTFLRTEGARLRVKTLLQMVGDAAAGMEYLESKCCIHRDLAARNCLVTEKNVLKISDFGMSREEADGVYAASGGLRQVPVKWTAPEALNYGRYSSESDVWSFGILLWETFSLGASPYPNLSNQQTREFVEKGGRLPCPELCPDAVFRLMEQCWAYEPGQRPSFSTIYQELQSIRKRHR
Text: as §1

Structure (SMILES) | % Ctrl, ZAP70 (panel of 442 kinases [1]) [% Ctrl] | KINOMEscan: BRAF (panel of 442 kinases [2]) | KINOMEscan: FES (panel of 442 kinases [3])
COc1cc(C(=O)N2CCC(N3CCN(C)CC3)CC2)ccc1Nc1ncc2c(n1)N(C)c1ccccc1C(=O)N2C [15 (LRRK2-IN-1)] | 79 | 81 | 84
COc1cc(C(=O)N2CCC(N3CCN(C)CC3)CC2)ccc1Nc1ncc2c(n1)N1CCc3cccc(c31)C(=O)N2C [Compound 24] | 100 |  | 
COc1cc(C(=O)N2CCC(N3CCN(C)CC3)CC2)ccc1Nc1ncc2c(n1)N(C1CCCC1)c1ccccc1C(=O)N2C [Compound 25, 11-cyclopentyl-2-((2-methoxy-4-(4-(4-methylpiperazin-1-yl)piperidine-1-carbonyl)phenyl)amino)-5-methyl-5H-benzo[e]pyrimido[5,4-b][1,4]diazepin-6(11H)-one] | 79 | 100 | 89
CCOc1cc(C(=O)N2CCC(N3CCN(C)CC3)CC2)ccc1Nc1ncc2c(n1)N(C1CCCC1)c1ccccc1C(=O)N2C [Compound 26] | 90 | 90 | 100
